# Like-named read-outs stand apart in the source and are kept apart here.
# Legend:
# Type in all cases: cell-based, human
# A388 = test: OncoPanel cell proliferation assay, A388; conditions: for Relative cell count (%) Mean: A388
# Protocol: (§1) Cells were seeded into 384-well plates and incubated in a humidified atmosphere of 5% CO2 at 37° C. Compounds were added the day following cell seeding. At the same time, a time zero untreated cell plate was generated. After a 3-day incubation period, cells were fixed and stained to allow fluorescence imaging of nuclei. Compounds (1 mM stock solutions) were serially diluted in half-log steps from the highest test concentration ([…]), and assayed over 10 concentrations with a maximum assay concentration of 0.1% DMSO. Automated fluorescence microscopy was carried out using a Molecular Devices ImageXpress Micro XL high-content imager, and images were collected with a 4× objective. 16-bit TIFF images were acquired and analyzed with MetaXpress 5.1.0.41 software.
# (§2) Cell proliferation was measured by the fluorescence intensity of an incorporated nuclear dye. The output is referred to as the relative cell count, where the measured nuclear intensity is transformed to percent of control (POC) using the following formula: […]
# (§3) Cellular response parameters were calculated using nonlinear regression to a sigmoidal single-site dose response model:
# (§4) Where y is a response measured at concentration x, A and B are the lower and upper limits of the response, C is the concentration at the response midpoint (EC50), and D is the Hill Slope (Ref. 1).
# (§5) GI50 is the concentration needed to reduce the observed growth by half (midway between the curve maximum and the time zero value). […] In rare instances, values <0 or >10 may be observed. […] Curve-fitting, calculations, and report generation was performed using a custom data reduction engine and MathIQ based software (AIM).
# SNU-5 = test: OncoPanel cell proliferation assay, SNU-5; conditions: for Relative cell count (%) Mean: SNU-5
# Protocol: as §1, §2, §3, §4, §5
# U-138MG = test: OncoPanel cell proliferation assay, U-138MG
# Protocol: as §1, with “Cells were grown in RPMI 1640, 10% FBS, 2 mM L-alanyl-L-glutamine, 1 mM Na pyruvate, or a special medium. Cells” for “Cells”
# as §2, §3, §4
# (§6) EC50 is the test compound concentration at the curve inflection point or half the effective response (parameter C of the fitted curve solution). GI50 is the concentration needed to reduce the observed growth by half (midway between the curve maximum and the time zero value). “Cell Count Activity Area” is an estimate of the integrated area above the curve (Barretina, et al. The Cancer Cell Line Encyclopedia enables predictive modelling of anticancer drug sensitivity. Nature 483: 603-607). […] In rare instances, values <0 or >10 may be observed. […] Curve-fitting, calculations, and report generation was performed using a custom data reduction engine and MathIQ based software (AIM).
# SNU-C2B = test: OncoPanel cell proliferation assay, SNU-C2B
# Protocol: as §1, with “Cells were grown in RPMI 1640, 10% FBS, 2 mM L-alanyl-L-glutamine, 1 mM Na pyruvate, or a special medium. Cells” for “Cells”
# as §2, §3, §4, §6
# CEM-C1 = test: OncoPanel cell proliferation assay, CEM-C1; conditions: for Relative cell count (%) Mean: CEM-C1
# Protocol: as §1, with “Cells were grown in RPMI 1640, 10% FBS, 2 mM L-alanyl-L-glutamine, 1 mM Na pyruvate, or a special medium. Cells” for “Cells”
# as §2, §3, §4, §6
# DMS114 = test: OncoPanel cell proliferation assay, DMS114; conditions: for Relative cell count (%) Mean: DMS114
# Protocol: as §1, §2, §3, §4, §5
compound,measurement,setting,value
"CO[C@H]1C[C@@H]2CC[C@@H](C)[C@@](O)(O2)C(=O)C(=O)N2CCCC[C@H]2C(=O)O[C@H]([C@H](C)C[C@@H]2C[C@@H]3C[C@H]2C[C@H]3O)CC(=O)[C@H](C)/C=C(\C)[C@@H](O)[C@@H](OC)C(=O)[C@H](C)C[C@H](C)/C=C/C=C/C=C/1C [Formula I, 37R-hydroxynorbornylrapamycin]",Cell Count Activity Area,"A388; A388, scale 0-10",3.22
same,Relative cell count (%) Mean,A388; 1.00E+00 microM,53.8%
same,Relative cell count (%) Mean,A388; 1.00E−01 microM,62.3%
same,Relative cell count (%) Mean,A388; 1.00E−02 microM,63.3%
same,Relative cell count (%) Mean,A388; 1.00E−03 microM,69.1%
same,Relative cell count (%) Mean,A388; 1.01E−04 microM,77.9%
same,Relative cell count (%) Mean,A388; 3.16E−01 microM,59.0%
same,Relative cell count (%) Mean,A388; 3.17E−02 microM,59.6%
same,Relative cell count (%) Mean,A388; 3.17E−03 microM,67.1%
same,Relative cell count (%) Mean,A388; 3.18E−04 microM,76.3%
same,Relative cell count (%) Mean,A388; 3.18E−05 microM,89.9%
same,EC50,"A388; Homo sapiens, 72 h, A388, 3-day incubation, read-out: Cell Count EC50",0.19 nM
same,GI50,"A388; Homo sapiens, 72 h, A388, 3-day incubation, read-out: Cell Count GI50",50.7 nM
same,IC50,"A388; Homo sapiens, 72 h, A388, 3-day incubation, read-out: Cell Count IC50",> 1000 nM
same,EC50,"SNU-5; Homo sapiens, 72 h, SNU-5, 3-day incubation, read-out: Cell Count EC50",2.05 nM
same,GI50,"SNU-5; Homo sapiens, 72 h, SNU-5, 3-day incubation, read-out: Cell Count GI50",23.8 nM
same,IC50,"SNU-5; Homo sapiens, 72 h, SNU-5, 3-day incubation, read-out: Cell Count IC50",> 1000 nM
same,Cell Count Activity Area,"SNU-5; SNU-5, scale 0-10",2.14
same,Relative cell count (%) Mean,SNU-5; 1.00E+00 microM,62.8%
same,Relative cell count (%) Mean,SNU-5; 1.00E−01 microM,65.7%
same,Relative cell count (%) Mean,SNU-5; 1.00E−02 microM,73.2%
same,Relative cell count (%) Mean,SNU-5; 1.00E−03 microM,84.5%
same,Relative cell count (%) Mean,SNU-5; 1.01E−04 microM,95.3%
same,Relative cell count (%) Mean,SNU-5; 3.16E−01 microM,64.0%
same,Relative cell count (%) Mean,SNU-5; 3.17E−02 microM,65.8%
same,Relative cell count (%) Mean,SNU-5; 3.17E−03 microM,77.6%
same,Relative cell count (%) Mean,SNU-5; 3.18E−04 microM,91.2%
same,Relative cell count (%) Mean,SNU-5; 3.18E−05 microM,96.3%
same,EC50,"U-138MG; Homo sapiens, U138-MG, 72 h, U-138MG, 3-day incubation, read-out: Cell Count EC50",0.0975 nM
same,GI50,"U-138MG; Homo sapiens, U138-MG, 72 h, U-138MG, 3-day incubation, read-out: Cell Count GI50",0.54 nM
same,IC50,"U-138MG; Homo sapiens, U138-MG, 72 h, U-138MG, 3-day incubation, read-out: Cell Count IC50",> 1000 nM
same,EC50,"U-138MG; Homo sapiens, U138-MG, Table 4 summary, U-138 MG, Glioblastoma, read-out: EC50",0.097 nM
same,Cell Count Activity Area,"U-138MG; U-138MG, scale 0-10",3.00
same,Relative cell count (%) Mean,"U-138MG; U-138MG, 1.00E+00 microM",62.8%
same,Relative cell count (%) Mean,"U-138MG; U-138MG, 1.00E−01 microM",66.3%
same,Relative cell count (%) Mean,"U-138MG; U-138MG, 1.00E−02 microM",71.3%
same,Relative cell count (%) Mean,"U-138MG; U-138MG, 1.00E−03 microM",70.6%
same,Relative cell count (%) Mean,"U-138MG; U-138MG, 1.01E−04 microM",82.1%
same,Relative cell count (%) Mean,"U-138MG; U-138MG, 3.16E−01 microM",64.5%
same,Relative cell count (%) Mean,"U-138MG; U-138MG, 3.17E−02 microM",66.8%
same,Relative cell count (%) Mean,"U-138MG; U-138MG, 3.17E−03 microM",70.9%
same,Relative cell count (%) Mean,"U-138MG; U-138MG, 3.18E−04 microM",75.7%
same,Relative cell count (%) Mean,"U-138MG; U-138MG, 3.18E−05 microM",98.2%
same,Relative cell count (%) Mean,SNU-C2B; 1.00E+00 microM,58.7%
same,Relative cell count (%) Mean,SNU-C2B; 1.00E−01 microM,65.6%
same,Relative cell count (%) Mean,SNU-C2B; 1.00E−02 microM,68.6%
same,Relative cell count (%) Mean,SNU-C2B; 1.00E−03 microM,73.7%
same,Relative cell count (%) Mean,SNU-C2B; 1.01E−04 microM,89.1%
same,Relative cell count (%) Mean,SNU-C2B; 3.16E−01 microM,55.1%
same,Relative cell count (%) Mean,SNU-C2B; 3.17E−02 microM,63.2%
same,Relative cell count (%) Mean,SNU-C2B; 3.17E−03 microM,71.6%
same,Relative cell count (%) Mean,SNU-C2B; 3.18E−04 microM,79.6%
same,Relative cell count (%) Mean,SNU-C2B; 3.18E−05 microM,83.2%
same,EC50,"SNU-C2B; Homo sapiens, 72 h, 3-day incubation, read-out: Cell Count EC50",2.07 nM
same,GI50,"SNU-C2B; Homo sapiens, 72 h, 3-day incubation, read-out: Cell Count GI50",24.1 nM
same,IC50,"SNU-C2B; Homo sapiens, 72 h, 3-day incubation, read-out: Cell Count IC50",> 1000 nM
same,Cell Count Activity Area,SNU-C2B; scale 0-10,2.30
same,Cell Count Activity Area,"CEM-C1; CEM-C1, scale 0-10",3.52
same,Relative cell count (%) Mean,CEM-C1; 1.00E+00 microM,47.1%
same,Relative cell count (%) Mean,CEM-C1; 1.00E−01 microM,53.2%
same,Relative cell count (%) Mean,CEM-C1; 1.00E−02 microM,58.4%
same,Relative cell count (%) Mean,CEM-C1; 1.00E−03 microM,68.7%
same,Relative cell count (%) Mean,CEM-C1; 1.01E−04 microM,90.0%
same,Relative cell count (%) Mean,CEM-C1; 3.16E−01 microM,48.9%
same,Relative cell count (%) Mean,CEM-C1; 3.17E−02 microM,53.1%
same,Relative cell count (%) Mean,CEM-C1; 3.17E−03 microM,62.4%
same,Relative cell count (%) Mean,CEM-C1; 3.18E−04 microM,72.7%
same,Relative cell count (%) Mean,CEM-C1; 3.18E−05 microM,94.0%
same,EC50,"CEM-C1; Homo sapiens, 72 h, CEM-C1, 3-day incubation, read-out: Cell Count EC50",0.5 nM
same,GI50,"CEM-C1; Homo sapiens, 72 h, CEM-C1, 3-day incubation, read-out: Cell Count GI50",10.2 nM
same,IC50,"CEM-C1; Homo sapiens, 72 h, CEM-C1, 3-day incubation, read-out: Cell Count IC50",391 nM
same,Cell Count Activity Area,"DMS114; DMS114, scale 0-10",4.35
same,Relative cell count (%) Mean,DMS114; 1.00E+00 microM,39.3%
same,Relative cell count (%) Mean,DMS114; 1.00E−01 microM,44.1%
same,Relative cell count (%) Mean,DMS114; 1.00E−02 microM,50.7%
same,Relative cell count (%) Mean,DMS114; 1.00E−03 microM,57.7%
same,Relative cell count (%) Mean,DMS114; 1.01E−04 microM,77.8%
same,Relative cell count (%) Mean,DMS114; 3.16E−01 microM,41.4%
same,Relative cell count (%) Mean,DMS114; 3.17E−02 microM,44.7%
same,Relative cell count (%) Mean,DMS114; 3.17E−03 microM,51.7%
same,Relative cell count (%) Mean,DMS114; 3.18E−04 microM,67.2%
same,Relative cell count (%) Mean,DMS114; 3.18E−05 microM,90.1%
same,EC50,"DMS114; Homo sapiens, DMS-114, 72 h, DMS114, 3-day incubation, read-out: Cell Count EC50",0.251 nM
same,GI50,"DMS114; Homo sapiens, DMS-114, 72 h, DMS114, 3-day incubation, read-out: Cell Count GI50",0.0822 nM
same,IC50,"DMS114; Homo sapiens, DMS-114, 72 h, DMS114, 3-day incubation, read-out: Cell Count IC50",4.4 nM
